Test results published in PMC3479139, “Diverse Small Molecule Inhibitors of Human Apurinic/Apyrimidinic Endonuclease APE1 Identified from a Screen of a Large Public Collection” (PLoS ONE, 2012).

Tests used:
APE1 [1] = molecular target: T1, APE1 (Homo sapiens, UniProt P27695); assay: Fluorogenic kinetic qHTS APE1 incision assay (primary screen and retest of cherrypicked samples); type: biochemical;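 further: purified APE1 cleaving a fluorophore/dark-quencher labelled 17-mer duplex DNA bearing a tetrahydrofuran AP site, fluorescence rise followed kinetically over the first 2 min, inhibition normalized to controls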
T1 construct: made in house

APE1 [2] = molecular target: T1, APE1; assay: Gel-based radiotracer (32P) APE1 incision assay; type: biochemical; design: concentration or dose not given beside the values; conditions: percent incision shown; entries 1-112;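 further: APE1 incision reactions ran 5 min at 37 °C, with cleaved product and intact substrate resolved electrophoretically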
APE1 [3] = molecular target: T1, APE1; assay: Fluorescence polarization (FP) displacement assay of APE1 binding to AP-DNA probe; conditions: read-out: FP IC50;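 further: TAMRA 5′-labeled duplex DNA with THF abasic site (5 nM) and APE1 (20 nM), Mg2+-free buffer, 15 min at room temperature, inhibition seen as lowered polarization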
Description: Double-stranded oligodeoxynucleotide containing tetrahydrofuran (THF) abasic site labeled with TAMRA at the 5′-end was used as the labeled binding probe. Inhibition of APE1 binding to labeled probe was detected by a decrease in the fluorescence polarization (FP) of the fluorophore. Briefly, 4 µL mixture of 20 nM APE1 and 5 nM probe contained in the enzymatic assay buffer from which Mg^2+ was omitted, was dispensed into 1536-well Greiner black solid bottom plates. Compounds (23 nL) were transferred via pintool, and after a 15-minute incubation at room temperature, fluorescence polarization was measured in a ViewLux High-throughput CCD imager (480 nm excitation and 540 nm emission) to determine the degree of probe displacement caused by the test compounds.

[4] = molecular target: double-stranded 17-mer DNA fragment; assay: ThO (Thiazole Orange) DNA displacement assay; type: binding; conditions: read-out: ThO-DNA binding IC50;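 further: miniaturized displacement of the intercalating dye from unlabeled duplex DNA, used to flag nonspecific DNA binders, chiefly intercalators, groove binders may be missed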
Excerpt: The double-stranded 17-mer DNA fragment used in the ThO DNA binding assay was of the same sequence as the fluorogenic HTS substrate but carried no dye labels.
(§1) In order to screen out nonselective compounds, such as non-specific DNA binders and inhibitors of related enzymes, we used a miniaturized ThO DNA displacement assay and a counterscreen against the bacterial endonuclease E. coli Endo IV, respectively, following the previously published protocols [21].
To detect screening hits that inhibit APE1 activity through non-specific DNA interactions, we employed a previously established miniaturized ThO dye displacement assay [21]. […] We note that the ThO assay reports primarily on DNA binders acting through intercalation, while potentially missing other types of DNA binders, such as those acting through the minor groove.

E. coli Endo IV = molecular target: T2, E. coli Endo IV (Escherichia coli, UniProt P0A6C1); assay: E. coli Endo IV profiling counterscreen; type: biochemical; conditions: read-out: EndoIV IC50;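 further: selectivity counterscreen of candidate APE1 inhibitors against the bacterial endonuclease Endo IV, run in the same assay format as the primary APE1 high-throughput screen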
T2 construct: made in house
Excerpt: as §1
To probe the selectivity of the candidate APE1 inhibitors, we tested them against E. coli EndoIV [36], employing the same assay as used in the HTS.

[5] = initial quantitative high-throughput screen, read-out: APE1 qHTS IC50
[6] = retest of cherrypicked sample, read-out: APE1 Retest IC50

T1 sequence (P27695 whole entry): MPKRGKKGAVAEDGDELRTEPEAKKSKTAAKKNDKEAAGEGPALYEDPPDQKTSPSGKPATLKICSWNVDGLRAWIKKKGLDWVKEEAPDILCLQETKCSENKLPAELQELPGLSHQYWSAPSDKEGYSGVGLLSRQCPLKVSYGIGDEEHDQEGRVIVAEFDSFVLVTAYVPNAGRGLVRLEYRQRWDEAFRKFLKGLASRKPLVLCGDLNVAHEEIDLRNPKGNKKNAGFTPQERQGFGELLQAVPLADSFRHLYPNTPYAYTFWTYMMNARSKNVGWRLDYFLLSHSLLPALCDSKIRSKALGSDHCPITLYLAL

Compound | IC50 (APE1 [1]; [5]) | IC50 (APE1 [1]; [6]) | Radiotracer Assay (%Activity) (APE1 [2]) | IC50 (APE1 [3]) | IC50 [4] | IC50 (E. coli Endo IV) | IC50 (APE1 [1]; control on every assay plate, average over screen, read-out: IC50 of intra-plate control titration)
O=c1/c(=C/c2ccco2)sc2nc(-c3ccccc3Br)nn12 [MLS000039532] | 22.4 µM | 7.9 µM | 9% | > 57 µM | > 57 µM | > 57 µM | –
O=C(Nc1ccc2nc(-c3ccco3)c(-c3ccco3)nc2c1)N1CCCCCC1 [MLS000050353] | 3.5 µM | 4 µM | 41% | 12.6 µM | > 57 µM | 15.8 µM | –
O=C1CC(=O)N(Cc2ccco2)C(=O)N1 [MLS000062734] | 10 µM | 5.6 µM | 14% | > 57 µM | > 57 µM | > 57 µM | –
CCn1c(SCC(=O)O)nc2sc3c(c2c1=O)CCC3 [MLS000069140] | 22.4 µM | 12.6 µM | 22.3% | > 57 µM | > 57 µM | > 57 µM | –
CCOC(=O)C1CCN(/C=C2/C(=O)NC(=O)N(Cc3ccco3)C2=O)CC1 [MLS000113273] | 14.1 µM | 3.2 µM | 3% | > 57 µM | > 57 µM | > 57 µM | –
CCCSC1=N/C(=C\C=C\c2ccco2)C(=O)S1 [MLS000114057] | 4 µM | 17.8 µM | 40% | > 57 µM | > 57 µM | > 57 µM | –
COc1ccc(N2Cc3cccc(C(=O)O)c3C2=O)cc1 [MLS000120697] | 12.6 µM | 3.9 µM | 37% | 7.9 µM | > 57 µM | > 57 µM | –
O=C(COC(=O)c1cc2c(s1)CCC2)Nc1ccc(F)cc1 [MLS000334872] | – | 10 µM | 39% | 12.6 µM | > 57 µM | > 57 µM | –
Cc1ccc(NC(=O)CN2C(=O)S/C(=C/c3ccc(-c4cc(C(=O)O)ccc4C)o3)C2=O)cc1C [MLS000530771] | 19.9 µM | 7.1 µM | 21% | 10 µM | > 57 µM | > 57 µM | –
CSC1=N/C(=C\c2ccc(Br)o2)C(=O)S1 [MLS000534059] | – | 8.9 µM | 36% | > 57 µM | > 57 µM | > 57 µM | –
CC(=O)c1ccc(NC(=O)c2ccc3nc(-c4ccco4)c(-c4ccco4)nc3c2)cc1 [MLS000534769] | 19.9 µM | 4 µM | 11% | > 57 µM | 8.9 µM | 10 µM | –
N#Cc1ccccc1CN1C(=O)S/C(=C/c2cccn2-c2cccc(C(=O)O)c2)C1=O [MLS000539676] | 19.9 µM | 14.1 µM | 25% | > 57 µM | > 57 µM | > 57 µM | –
Cc1ccc(NC(=O)CN2C(=O)S/C(=C\c3cccn3-c3cccc(C(=O)O)c3)C2=O)c(C)c1 [MLS000540800] | 8.9 µM | 12.6 µM | 0% | 15.8 µM | > 57 µM | > 57 µM | –
CC1(CC(=O)N/N=C/c2cc([N+](=O)[O-])c(O)cc2O)OCCO1 [MLS000548032] | 14.1 µM | 12.6 µM | 13% | > 57 µM | > 57 µM | > 57 µM | –
O=C(COC(=O)C1CC(=O)N(Cc2ccco2)C1)c1ccc(OC(=O)c2ccccc2)cc1 (stereo not drawn) [MLS000548444] | – | – | 35% | – | > 57 µM | 10 µM | –
O=C(Cc1ccc(S(=O)(=O)N2CCOCC2)s1)Nc1nc2c(s1)CCCC2 [MLS000567201] | – | – | – | – | 15.8 µM | > 57 µM | –
CC1(C)C(=O)CC[C@]2(C)C3C(=O)C=C4[C@H]5C[C@@](C)(C(=O)O)CC[C@]5(C)CC[C@]4(C)[C@]3(C)CC[C@@H]12 (stereo partly drawn) [MLS000697684] | – | – | – | – | > 57 µM | > 57 µM | –
Cc1ccc(C)c(OCCn2ccnc2)c1 [MLS000974607] | – | – | – | – | > 57 µM | > 57 µM | –
O=C(CCC(=O)c1ccc(Oc2ccccc2)cc1)Nc1ccc(C(=O)O)cc1 [MLS001001328] | – | – | – | – | > 57 µM | > 57 µM | –
O=C(COC(=O)/C=C/c1ccco1)NCc1ccco1 [MLS001004396] | – | – | – | – | > 57 µM | > 57 µM | –
O=C(COC(=O)/C=C/c1ccco1)NCc1ccc2c(c1)OCO2 [MLS001006993] | – | – | – | – | > 57 µM | > 57 µM | –

Compound | IC50 (APE1 [1]; [5]) | IC50 (APE1 [1]; [6]) | Radiotracer Assay (%Activity) (APE1 [2]) | IC50 (APE1 [3]) | IC50 [4] | IC50 (E. coli Endo IV) | IC50 (APE1 [1]; control on every assay plate, average over screen, read-out: IC50 of intra-plate control titration)
O=C(O)C1C2C=CC(C2)C1C(=O)Nc1ccccc1Br (stereo not drawn) [MLS001008562] | – | – | – | – | > 57 µM | > 57 µM | –
Cn1c(SCC(=O)Nc2nncs2)nnc1C1CC1 [MLS001060429] | – | – | – | – | > 57 µM | > 57 µM | –
O=C(COc1ccccc1[N+](=O)[O-])Nc1cccc(S(=O)(=O)NC2=NCCCCC2)c1 [MLS001078387] | – | – | – | – | > 57 µM | > 57 µM | –
CN(CC(=O)Nc1cccc(F)c1)C(=O)c1cc(-c2ccco2)nc2ccccc12 [MLS001156482] | – | – | – | – | 40.8 µM | > 57 µM | –
CC(C)OCCOc1ccc2oc(-c3ccco3)cc(=O)c2c1 [MLS001163009] | – | – | – | – | > 57 µM | > 57 µM | –
COc1cc(/C=C(\C#N)C(=O)Nc2cccc(C(=O)O)c2)ccc1OCc1ccc(Cl)cc1 [MLS001172702] | – | – | – | – | > 57 µM | > 57 µM | –
Cc1c(NS(=O)(=O)c2cc(C(=O)NCCN(C)C)ccc2Cl)c(=O)n(-c2ccccc2)n1C [MLS001175210] | – | – | – | – | > 57 µM | > 57 µM | –
O=[N+]([O-])c1ccc(Cl)c(-c2ccc(/C=N/n3cnnc3)o2)c1 [MLS001194618] | – | – | – | – | > 57 µM | > 57 µM | –
Cc1ccc2c(=O)cc(C(=O)NCCc3ccc(S(N)(=O)=O)cc3)oc2c1 [MLS001216111] | – | – | – | – | 36.3 µM | > 57 µM | –
COC(=O)c1c(C)[nH]c(C(=O)COc2ccc3ccc(=O)oc3c2)c1C [MLS002156353] | – | – | – | – | – | > 57 µM | –
COc1ccc(S(=O)(=O)N2CCN(C(=O)C3COc4ccccc4O3)CC2)cc1 (stereo not drawn) [MLS002159357] | – | – | – | – | > 57 µM | > 57 µM | –
COc1ccccc1NC(=O)COC(=O)c1cc2c(s1)CCC2 [MLS002161511] | – | – | – | – | > 57 µM | 18.2 µM | –
CNS(=O)(=O)c1cccc(C(=O)OCC(=O)c2ccc[nH]2)c1 [MLS002163823] | – | – | – | – | > 57 µM | > 57 µM | –
O=C(O)Cc1ccc(S(=O)(=O)N2CCCC2)s1 [MLS002245326] | – | – | – | – | > 57 µM | > 57 µM | –
O=C(/C=C/c1ccco1)OCC(=O)N1CCCCC1 [MLS002246602] | – | – | – | – | > 57 µM | > 57 µM | –
C=CCn1c(SCC(=O)Nc2sc3c(c2C#N)CCC(C)C3)nc2cc(C(=O)O)ccc2c1=O (stereo not drawn) [MLS002251505] | – | – | – | – | > 57 µM | > 57 µM | –
NS(=O)(=O)c1ccc(CCNC(=O)c2ccc3nccnc3c2)cc1 [MLS002252586] | – | – | – | – | > 57 µM | > 57 µM | –
COc1ccc(CNC(=O)COC(=O)c2ccc(S(=O)(=O)NCc3ccco3)cc2)cc1 [MLS002252767] | – | – | – | – | > 57 µM | > 57 µM | –
N[C@H](Cc1ccc(O)c(O)c1)C(=O)O [NCGC00093869] | 1 µM | 3.5 µM | 11.3% | – | > 57 µM | > 57 µM | –
O=C(O)c1cc[c]([Sb](=[O])([OH])[OH])cc1[N+](=O)[O-] [NSC-13755, reference compound] | – | – | – | – | – | – | 0.035 µM
